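The compound was tested at five concentrations on cells cultured in 96-well plates, with a 48-hour exposure period. Abbreviation: GI50, concentration required for 50% inhibition of growth. TGI marks complete inhibition of growth.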
Columns and labels:
Assay in all cases: DTP human tumour cell line panel, 48 h
[1] = tested on: T-47D breast
[2] = tested on: HS 578T breast
[3] = tested on: PC-3 prostate
[4] = tested on: A549 NSCLC
[5] = tested on: SK-MEL-28 melanoma
[6] = tested on: U251 CNS
[7] = tested on: NCI/ADR-RES ovarian
[8] = tested on: NCI-H522 lung
[9] = tested on: HOP-92 NSCLC
[10] = tested on: A498 renal

| Compound | GI50 [1] | TGI [1] | GI50 [2] | TGI [2] | GI50 [3] | TGI [3] | GI50 [4] | TGI [4] | GI50 [5] | TGI [5] | GI50 [6] | TGI [6] | GI50 [7] | TGI [7] | GI50 [8] | TGI [8] | GI50 [9] | TGI [9] | GI50 [10] | TGI [10] |
| --- | --- | --- | --- | --- | --- | --- | --- | --- | --- | --- | --- | --- | --- | --- | --- | --- | --- | --- | --- | --- |
| CCCN1C(=O)/C(=c2\sc3n(c2=O)C2C(NN=3)N(CC)C(=O)N2CC)c2ccccc21 (stereo not given) | 0.438 µM | > 88.7 µM | 0.386 µM | > 39.8 µM | 0.453 µM | > 37.2 µM | 0.854 µM | 16.5 µM | 1.18 µM | 29.1 µM | 0.485 µM | 12.3 µM | 0.366 µM | 10.9 µM | 0.356 µM | 4.51 µM | 0.885 µM | 16.3 µM | 0.188 µM | 0.77 µM |
| COc1ccc2c(c1)CCC1C2CCC2(C)C1CCC2(O)CNC(=O)CCCCC1CCSS1 (stereo not given) | 3.27 µM | 28.9 µM | 13.9 µM | > 100 µM | 5.91 µM | > 100 µM | 5.73 µM | > 100 µM | 64.9 µM | > 100 µM | 15.2 µM | 56.6 µM | 7.28 µM | > 100 µM | 23.7 µM | > 100 µM | 4.9 µM | 23 µM | 73.4 µM | > 100 µM |
| CC1Oc2cc3c(-c4c(O)cc(O)c5c(O)c6c(cc45)OC(C)C(C)C6=O)c(O)cc(O)c3c(O)c2C(=O)C1C (stereo not given) |  | 1.41 µM |  | 0.459 µM |  | 0.698 µM |  | 1.29 µM |  | 1.96 µM |  | 0.404 µM |  | 1.39 µM |  | 1.63 µM |  | 0.854 µM |  | 0.784 µM |
| O=C(O)CS(=O)(=O)C(c1ccccc1)c1ccccc1 |  | > 100 µM |  | > 100 µM |  | > 100 µM |  | > 100 µM |  | > 100 µM |  | > 100 µM |  | > 100 µM |  | > 100 µM |  | > 100 µM |  | > 100 µM |
| Cc1cc(N2CCCCC2)nc(N(CCNc2ccnc3cc(Cl)ccc23)Cc2ccco2)n1 | 1.82 µM | 4.32 µM | 2.34 µM | 5.52 µM | 1.69 µM | 3.72 µM | 2.69 µM | 7.74 µM | 1.83 µM | 3.75 µM | 1.73 µM | 3.19 µM | 1.79 µM | 3.71 µM | 1.61 µM | 3.52 µM | 5.73 µM | 21.7 µM | 1.92 µM | 5.09 µM |
| CCCN(Cc1ccc(F)cc1)c1ccc(CO)c(Cl)c1 | 0.119 µM | 0.733 µM | 14.8 µM | 37.6 µM | 11.6 µM | 24.6 µM | 2.12 µM | 16.5 µM | 13.7 µM | 27 µM | 2.48 µM | 16.2 µM | 9.52 µM | 22.9 µM | 9.5 µM | 22.6 µM | 2.66 µM | 14.2 µM | 0.0236 µM | 0.102 µM |
| OCC1OC(n2ccc3c2ncn2ncnc32)C(O)C1O (stereo not given) | 0.273 µM | 5.54 µM | 6.46 µM | 85.9 µM | 0.459 µM | 22.8 µM | 4.91 µM | > 100 µM | > 72.9 µM | > 100 µM | 47.7 µM | > 100 µM | 0.712 µM | 63.7 µM | 90.4 µM | > 100 µM | 0.253 µM | 9.22 µM | 0.205 µM | 2.37 µM |
| CCOC(=O)Cc1c[nH]c(=S)[nH]c1=O | > 100 µM | > 100 µM | > 100 µM | > 100 µM | > 100 µM | > 100 µM | > 100 µM | > 100 µM | > 100 µM | > 100 µM | > 100 µM | > 100 µM | > 100 µM | > 100 µM | > 100 µM | > 100 µM | > 100 µM | > 100 µM | > 100 µM | > 100 µM |
| CCc1c(C)[nH]c(/C=C2\N=C(c3ccc[nH]3)C=C2OC)c1C | 0.545 µM | 3.22 µM | 0.164 µM | 2.3 µM | 0.153 µM | 10.8 µM | 0.498 µM | 10.5 µM | 0.365 µM | 1.87 µM | 0.275 µM | 7.33 µM | 0.17 µM | 6.42 µM | 0.576 µM | 2.34 µM | 0.135 µM | 0.682 µM | 6.87 µM | 21.5 µM |
| O=C(O)[C@@H]1C2CC([C@@H]1C(=O)O)[C@H](N1C(=O)CCC1=O)[C@@H]2Br (stereo not given in full) |  | > 100 µM |  | > 100 µM |  | > 100 µM |  | > 100 µM |  | > 100 µM |  | > 100 µM |  | > 100 µM |  | > 100 µM |  | > 100 µM |  | > 100 µM |
| CCN(CC)CCOc1ccc(C(=C(C)c2ccc(Cl)cc2)c2ccc(OCCN(CC)CC)cc2)cc1 | 0.565 µM | 1.25 µM | 0.71 µM | 1.85 µM | 0.63 µM | 1.36 µM | 0.632 µM | 1.31 µM | 0.602 µM | 1.1 µM | 0.582 µM | 1.15 µM | 0.657 µM | 1.4 µM | 0.591 µM | 1.25 µM | 0.536 µM | 2.19 µM | 1.79 µM | 6.12 µM |
